According to patent publication US7163920B2, “Peptide with osteogenic activity” (Ethicon, Inc., priority 2003, dated 2007):

Legend:
[1] = Elman's test (DTNB) for free sulfhydryl groups, with UV measurement; type: physicochemical; conditions: for Free Sulfhydryl Group Content, Optical density At 412 nM: 0.5 mM peptide in Elman's reaction buffer pH 8.0
Method: (§1) The formation of inter- or intra-chain disulfide bonds was determined by Elman's test and a reverse phase HPLC method. The peptide represented by SEQ. ID NO: 1 was dissolved in 50 mM sodium acetate, pH 5.2, containing 1 mM EDTA to a stock solution of 10 mM. The stock solution was further diluted with either 50 mM sodium acetate buffer or Elman's reaction buffer ([…], pH 8.0, containing 1 mM EDTA) to a final concentration of 0.5 mM. Samples prepared with sodium acetate buffer were kept at 5° C. for HPLC analysis later.
The reagent used in Elman's test is 5,5′-dithio-bis-(2-nitrobenzoic acid), also know as DTNB. […] Sulfhydryl groups can be quantitated in a sample by comparison to a standard curve prepared with know concentrations of sulfhydryl-containing compound such as cysteine. The measurement of free sulfhydryl group was performed when the peptide was freshly prepared and after 24 hours incubation at 37° C. The incubation step was designed to mimic the cell culture conditions and to create conditions for inter- or intra-chain disulfide bond formations. To examine the integrity of the peptide after incubation, a UV measurement was performed when the peptide (SEQ. ID NO: 1) was freshly prepared and after 24 hours incubation.

[2] = Reverse phase HPLC for peptide integrity after disulfide bond formation; type: physicochemical
Method: as §1
To determine the integrity of the peptide of SEQ. ID NO: 1 after disulfide bond formations, samples in sodium acetate buffer (1G1) and in Elman's reaction buffer (1G2) were subjected to reverse phase HPLC after a 24 hour incubation at 37° C. In particular, a 0–80% acetonitrile gradient in 0.1% TFA was used over 15 minutes at a flow rate of 2 ml/min on a Vydac C-18 column. Detection was at 214 nm.

human chondrocytes = assay: 3H-thymidine incorporation, proliferative response of human chondrocytes; type: cell-based; conditions: for 3H-Thymidine Incorporation Into Chondrocytes: Table 3, 48 hours
Method: (§2) Primary human osteoblasts were trypsinized and cell counts determined. Cells were resuspended at a concentration of 0.5×10^5 cells/ml in growth medium [Dulbeccos Modified Eagles Medium (DMEM) 10% Fetal Bovine Serum (FBS), 100 units Penicillin and 50 μg/ml Streptomycin]. A 100 μl aliquot of cells was added to each well in a 96 well dish. Cells were allowed to adhere for 24 hours and then refed with DMEM containing 0.5% FBS for 24 hours. Thereafter, several concentrations (10, 100, 500 μg/ml final concentration) of peptide in DMEM containing 0.5% FBS were added to different wells in quadruplicate. These plates were incubated in a cell culture incubator at 37° C. 5% CO2 for 48 hours. Subsequently, 0.1 μCi of ^3H-thymidine was added to each well, and incubated at 37° C. for an additional 3 hours prior to harvest. Cells were lysed and the lysate was placed in scintillation fluid and the amount of thymidine incorporated was determined by beta counting (in Counts Per Minute, or CPM).
The effect of the peptide […] (SEQ. ID NO: 1) on stimulation of human chondrocyte proliferation was assessed by thymidine incorporation as described above. The experiments were set up as detailed in Example 1. Following serum starvation, cells were treated with the peptide at concentration of 10, 100, and 500 μg/ml of peptide in DMEM containing 0.5% FBS. These plates were incubated at 37° C. in 5% CO2 for 48 hours and processed for analysis as described in Example 1.

[3] = system: Primary human osteoblasts; assay: 3H-thymidine incorporation, proliferative response of human osteoblasts; type: cell-based
Method: as §2
To help determine a maximal stimulation of cell proliferation, the study was repeated with concentrations of 10, 50, 100, and 200 μg/ml final concentration) of the peptide represented by SEQ. ID NO: 1 in DMEM containing 0.5% FBS.
The experiments were set up as described for Example 1, with proliferation assessed by measurement of thymidine incorporation into newly synthesized DNA. […] These plates were incubated at 37° C. in 5% CO2 for 48 hours and processed for analysis as mentioned in Example 1.

human fibroblasts = assay: 3H-thymidine incorporation, proliferative response of human fibroblasts; type: cell-based; conditions: for 3H-Thymidine Incorporation Into Fibroblasts: Table 4 (human fibroblasts per Example 4), 48 hours
Method: as §2
The effect of the peptide […] (SEQ. ID NO: 1) on stimulation of human fibroblast proliferation was assessed by thymidine incorporation as described above. The experiments were set up as detailed in Example 1. Following serum starvation, cells were treated with the peptide at concentration of 10, 100, and 500 μg/ml of peptide in DMEM containing 0.5% FBS. These plates were incubated at 37° C. in 5% CO2 for 48 hours and processed for analysis as described in Example 1.

[4] = after 24 hrs incubation at 37° C.

Sequence: CGGGRWCG (synthesized primer) [ID NO: 1, synthesized by Invitrogen Corporation]
- free sulfhydryl group content after incubation ([1]; after 24 hour incubation at 37° C., 412 nM): reduced significantly
- Optical density At 280 nM (UV measurement, integrity of the peptide) [1, 4]: 2.037
- Free Sulfhydryl Group Content, Optical density At 412 nM [1, 4]: 0.011
- change of absorbance at 280 nM ([1]; fresh vs 24 hour old samples): did not change
- Optical density At 280 nM (UV measurement, integrity of the peptide) ([1]; freshly prepared): 2.127
- Free Sulfhydryl Group Content, Optical density At 412 nM ([1]; freshly prepared): 0.71
- disulfide structure formed, reverse phase HPLC ([2]; Elman's reaction buffer pH 8.0 (1G2), 24 hour incubation at 37° C.): formed intra-chain disulfide bonds (ring structure) and not a higher lever structure
- integrity of the peptide by reverse phase HPLC ([2]; after 24 hours incubation at 37° C.): intact
- sulfhydryl state, reverse phase HPLC ([2]; sodium acetate buffer pH 5.2 (1G1), 24 hours incubation): predominately contained free sulfhydryl groups
- stimulation of proliferation of human chondrocytes (human chondrocytes; 10, 100, and 500 μg/ml): did not stimulate proliferation
- 3H-Thymidine Incorporation Into Chondrocytes (human chondrocytes; peptide 10 μg/ml): 803 +/− 96 CPM
- 3H-Thymidine Incorporation Into Chondrocytes (human chondrocytes; peptide 100 μg/ml): 726 +/− 88 CPM
- 3H-Thymidine Incorporation Into Chondrocytes (human chondrocytes; peptide 500 μg/ml): 640 +/− 80 CPM
- 3H-Thymidine Incorporation Into Osteoblasts ([3]; Table 1A, peptide 0 μg/ml, DMEM 0.5% FBS, 48 hours): 591 +/− 39 CPM
- stimulation of proliferation as compared to controls treated with 0.1% BSA ([3]; Table 1A, peptide 100 μg/ml): 2.5 fold
- 3H-Thymidine Incorporation Into Osteoblasts ([3]; Table 1A, peptide 100 μg/ml, DMEM 0.5% FBS, 48 hours): 1228 +/− 157 CPM
- stimulation of osteoblast proliferation ([3]; Table 1A, peptide 500 μg/ml): no statistical stimulation
- 3H-Thymidine Incorporation Into Osteoblasts ([3]; Table 1A, peptide 500 μg/ml, DMEM 0.5% FBS, 48 hours): 629 +/− 46 CPM
- 3H-Thymidine Incorporation Into Osteoblasts ([3]; Table 1B (repeat study), peptide 10 μg/ml): 807 +/− 45 CPM
- 3H-Thymidine Incorporation Into Osteoblasts ([3]; Table 1B (repeat study), peptide 50 μg/ml): 948 +/− 62 CPM
- 3H-Thymidine Incorporation Into Osteoblasts ([3]; Table 1B (repeat study), peptide 100 μg/ml): 1150 +/− 37 CPM
- 3H-Thymidine Incorporation Into Osteoblasts ([3]; Table 1B (repeat study), peptide 200 μg/ml): 1565 +/− 98 CPM
- concentration of maximal stimulation of proliferation (dose dependant) ([3]; Table 1B, 10-200 μg/ml tested): 200 µg/mL
- stimulation of proliferation relative to cells cultured in the presence of serum ([3]; Table 1B, maximal stimulation at 200 μg/ml vs 10% FBS): approximately 75%
- 3H-Thymidine Incorporation Into Osteoblasts ([3]; Table 2 (Example 2), peptide 200 ug/ml): 3446 +/− 333 CPM
- stimulation of osteoblast proliferation (fold, words) ([3]; Table 2, peptide 200 ug/ml): two fold
- stimulation of proliferation of human fibroblasts (human fibroblasts; 10, 100, and 500 μg/ml): did not stimulate proliferation
- 3H-Thymidine Incorporation Into Fibroblasts (human fibroblasts; peptide 10 μg/ml): 1281 +/− 86 CPM
- 3H-Thymidine Incorporation Into Fibroblasts (human fibroblasts; peptide 100 μg/ml): 1103 +/− 76 CPM
- 3H-Thymidine Incorporation Into Fibroblasts (human fibroblasts; peptide 500 μg/m1): 1088 +/− 64 CPM
